# Test results reported in US20230265116A1, “DEGRADATION OF (EGFR) BY CONJUGATION OF EGFR INHIBITORS WITH E3 LIGASE LIGAND AND METHODS OF USE” (BEIGENE, LTD., priority 2020, published 2023).
# Where two headings read alike, the source gives them in different places.
# Columns and labels:
# [1] = biological target: T1, EGFR L858R/T790M/C797S (BaF3-LTC cells) (Homo sapiens, UniProt P00533, C797S/L858R/T790M); assay: EGFR degradation HTRF assay, BaF3-LTC cells; assay type: cell-based
# T1 construct: expressed in transfected cells; host or cells: BaF3
# How it was run: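 Cells treated 16 h at 37 °C, 5% CO2 in medium with 0.2% DMSO; top final concentration 10 uM, 5-fold dilution, 8 doses. Lysates read by HTRF (665/620 nm); degradation % versus DMSO high control, DC50 from four-parameter fit, Dmax as maximal degradation.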
# [2] = test system: EGFR Del19/T790M/C797S (H1975-clone #28); assay: EGFR degradation HTRF assay, H1975-clone #28 DTC cells; assay type: cell-based
# How it was run: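 Compounds (top 10 uM, 5-fold, 8 points, 0.2% DMSO) incubated 16 h at 37 °C on homozygous clones: #23 Del19/C797S, #28 Del19/T790M/C797S, exogenous EGFR only in H1975. HTRF on lysates quantified remaining EGFR relative to DMSO; four-parameter fit gave DC50 and Dmax.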
# [3] = read-out: DC50(nM) BaF3-LTC; BaF3-LTC cells; EGFR degradation, IC50 (DC50) from curve fit
# [4] = H1975 # 28 DTC cells; maximum percentage of inhibition (degradation)
# [5] = read-out: DC50(nM) H1975 # 28 DTC; H1975 # 28 DTC cells; EGFR degradation, IC50 (DC50) from curve fit
# [6] = BaF3-LTC cells; EGFR degradation, IC50 (DC50) from curve fit; read-out: DC50(nM) BaF3-LTC
# [7] = BaF3-LTC cells; maximum percentage of inhibition (degradation); read-out: Dmax (%) BaF3-LTC
# [8] = H1975 # 28 DTC cells; EGFR degradation, IC50 (DC50) from curve fit; read-out: DC50(nM) H1975 # 28 DTC
# T1 sequence (P00533 25-1210 T790M/C797S/L858R): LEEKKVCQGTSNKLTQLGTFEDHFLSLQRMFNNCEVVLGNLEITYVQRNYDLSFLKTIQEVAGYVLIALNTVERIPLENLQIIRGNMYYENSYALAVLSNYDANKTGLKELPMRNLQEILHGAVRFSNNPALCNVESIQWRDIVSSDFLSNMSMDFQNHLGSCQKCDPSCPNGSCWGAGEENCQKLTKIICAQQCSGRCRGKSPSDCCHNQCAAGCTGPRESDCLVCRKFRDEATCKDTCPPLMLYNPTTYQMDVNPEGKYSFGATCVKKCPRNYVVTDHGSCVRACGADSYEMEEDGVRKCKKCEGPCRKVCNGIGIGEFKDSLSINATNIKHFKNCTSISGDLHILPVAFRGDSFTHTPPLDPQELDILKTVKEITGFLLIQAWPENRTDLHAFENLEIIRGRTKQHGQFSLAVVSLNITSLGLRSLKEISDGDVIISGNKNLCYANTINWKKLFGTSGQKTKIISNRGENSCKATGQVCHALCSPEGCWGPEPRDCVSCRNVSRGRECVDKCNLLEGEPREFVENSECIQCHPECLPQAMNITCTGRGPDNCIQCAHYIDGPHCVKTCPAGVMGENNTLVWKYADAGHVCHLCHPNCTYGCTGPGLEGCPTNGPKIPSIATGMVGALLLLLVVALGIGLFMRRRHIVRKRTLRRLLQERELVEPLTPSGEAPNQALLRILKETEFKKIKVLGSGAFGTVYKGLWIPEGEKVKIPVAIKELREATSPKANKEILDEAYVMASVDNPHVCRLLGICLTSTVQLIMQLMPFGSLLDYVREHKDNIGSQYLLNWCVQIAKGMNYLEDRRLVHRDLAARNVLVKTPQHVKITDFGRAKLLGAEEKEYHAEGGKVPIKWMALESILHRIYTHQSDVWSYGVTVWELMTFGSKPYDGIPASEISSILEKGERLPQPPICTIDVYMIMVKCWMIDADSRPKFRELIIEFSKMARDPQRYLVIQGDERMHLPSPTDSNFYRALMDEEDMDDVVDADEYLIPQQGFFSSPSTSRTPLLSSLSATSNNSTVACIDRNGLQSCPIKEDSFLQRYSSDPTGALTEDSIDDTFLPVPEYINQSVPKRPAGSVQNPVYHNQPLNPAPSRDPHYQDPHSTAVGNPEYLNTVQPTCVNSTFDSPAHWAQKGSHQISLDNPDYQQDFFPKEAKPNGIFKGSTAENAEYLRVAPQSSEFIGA
Structure (SMILES),Dmax (%) BaF3-LTC ([1]; BaF3-LTC cells; maximum percentage of inhibition (degradation)) [%],"DC50 [1, 3] [nM]","Dmax (%) H1975 # 28 DTC [2, 4] [%]","DC50 [2, 5] [nM]","DC50 [1, 6] [nM]","Dmax [1, 7] [%]","DC50 [2, 8] [nM]","Dmax ([1]; read-out: Dmax (%) BaF3-LTC, BaF3-LTC cells; maximum percentage of inhibition (degradation)) [%]"
"CCOc1cc(N2CCC(N3CCN(CCCc4cc(F)cc5c4oc(=O)n5C4CCC(=O)NC4=O)CC3)CC2)c(CC)cc1Nc1ncc(Br)c(Nc2ccc3nc(CC)ncc3c2P(C)(C)=O)n1 (centres unmarked) [Example 617, 3-(7-(3-(4-(1-(4-((5-bromo-4-((5-(dimethylphosphoryl)-2-ethylquinazolin-6-yl)amino)pyrimidin-2-yl)amino)-5-ethoxy-2-ethylphenyl)piperidin-4-yl)piperazin-1-yl)propyl)-5-fluoro-2-oxobenzo[d]oxazol-3(2H)-yl)piperidine-2,6-dione]",91.31,5.77,74.31,1.15,–,–,–,–
"CCOc1cc(N2CCC(N3CCN(CCc4cc(OC)cc5c4oc(=O)n5C4CCC(=O)NC4=O)CC3)CC2)c(CC)cc1Nc1ncc(Br)c(Nc2ccc3nc(CC)ccc3c2P(C)(C)=O)n1 (centres unmarked) [Example 618, 3-(7-(2-(4-(1-(4-((5-bromo-4-((5-(dimethylphosphoryl)-2-ethylquinolin-6-yl)amino)pyrimidin-2-yl)amino)-5-ethoxy-2-ethylphenyl)piperidin-4-yl)piperazin-1-yl)ethyl)-5-methoxy-2-oxobenzo[d]oxazol-3(2H)-yl)piperidine-2,6-dione]",–,–,74.88,–,53.2,74.2,2.14,–
"CCOc1cc(N2CCC(N3CCN(CCOCCc4cccc5c4oc(=O)n5C4CCC(=O)NC4=O)CC3)CC2)c(CC)cc1Nc1ncc(Br)c(Nc2ccc3nc(CC)ccc3c2P(C)(C)=O)n1 (centres unmarked) [Example 619, 3-(7-(2-(2-(4-(1-(4-((5-bromo-4-((5-(dimethylphosphoryl)-2-ethylquinolin-6-yl)amino)pyrimidin-2-yl)amino)-5-ethoxy-2-ethylphenyl)piperidin-4-yl)piperazin-1-yl)ethoxy)ethyl)-2-oxobenzod[d]oxazol-3(2H)-yl)piperidine-2,6-dione]",–,–,62.88,–,11.2,92.1,0.91,–
"CCOc1cc(N2CCC(N3CCN(CCCc4cc(F)cc5c4oc(=O)n5C4CCC(=O)NC4=O)CC3)CC2)c(CC)cc1Nc1ncc(Br)c(Nc2cc(F)c3nc(CC)ccc3c2P(C)(C)=O)n1 (centres unmarked) [Example 620, 3-(7-(3-(4-(1-(4-((5-bromo-4-((5-(dimethylphosphoryl)-2-ethyl-8-fluoroquinolin-6-yl)amino)pyrimidin-2-yl)amino)-5-ethoxy-2-ethylphenyl)piperidin-4-yl)piperazin-1-yl)propyl)-5-fluoro-2-oxobenzo[d]oxazol-3(2H)-yl)piperidine-2,6-dione]",–,–,78.78,–,8.28,93.8,2.04,–
"CCOc1cc(N2CCC(N3CCN(CC4CCN(c5cc(F)cc6c5oc(=O)n6C5CCC(=O)NC5=O)CC4)CC3)CC2)c(CC)cc1Nc1ncc(Br)c(Nc2ccc3nc(CC)ccc3c2P(C)(C)=O)n1 (centres unmarked) [Example 621, 3-(7-(4-((4-(1-(4-((5-bromo-4-((5-(dimethylphosphoryl)-2-ethylquinolin-6-yl)amino)pyrimidin-2-yl)amino)-5-ethoxy-2-ethylphenyl)piperidin-4-yl)piperazin-1-yl)methyl)piperidin-1-yl)-5-fluoro-2-oxobenzo[d]oxazol-3(2H)-yl)piperidine-2,6-dione]",–,–,77.44,–,15,93.9,1.61,–
"CCOc1cc(N2CCC(N3CCN(CC4CN(c5cccc6c5n(C)c(=O)n6C5CCC(=O)NC5=O)C4)CC3)CC2)c(CC)cc1Nc1ncc(Br)c(Nc2ccc3c(=O)n(CC)ncc3c2P(C)(C)=O)n1 (centres unmarked) [Example 622, 3-(4-(3-((4-(1-(4-((5-bromo-4-((5-(dimethylphosphoryl)-2-ethyl-1-oxo-1,2-dihydrophthalazin-6-yl)amino)pyrimidin-2-yl)amino)-5-ethoxy-2-ethylphenyl)piperidin-4-yl)piperazin-1-yl)methyl)azetidin-1-yl)-3-methyl-2-oxo-2,3-dihydro-1H-benzo[d]imidazol-1-yl)piperidine-2,6-dione]",–,–,75.46,–,37.3,94,4.78,–
"CCOc1cc(N2CCC(N3CCN(C[C@@H]4CCN(c5cccc6c5oc(=O)n6C5CCC(=O)NC5=O)C4)CC3)CC2)c(CC)cc1Nc1ncc(Br)c(Nc2ccc3c(=O)n(CC)ncc3c2P(C)(C)=O)n1 (stereo partly drawn) [Example 623, 3-(7-((S)-3-((4-(1-(4-((5-bromo-4-((5-(dimethylphosphoryl)-2-ethyl-1-oxo-1,2-dihydrophthalazin-6-yl)amino)pyrimidin-2-yl)amino)-5-ethoxy-2-ethylphenyl)piperidin-4-yl)piperazin-1-yl)methyl)pyrrolidin-1-yl)-2-oxobenzo[d]oxazol-3(2H)-yl)piperidine-2,6-dione]",–,–,75.76,–,17.1,92,1.31,–
"CCOc1cc(N2CCC(N3CCN(CCc4ccc5c(oc(=O)n5C5CCC(=O)NC5=O)c4Cl)CC3)CC2)c(CC)cc1Nc1ncc(Br)c(Nc2ccc3nc(CC)ccc3c2P(C)(C)=O)n1 (centres unmarked) [Example 624, 3-(6-(2-(4-(1-(4-((5-bromo-4-((5-(dimethylphosphoryl)-2-ethylquinolin-6-yl)amino)pyrimidin-2-yl)amino)-5-ethoxy-2-ethylphenyl)piperidin-4-yl)piperazin-1-yl)ethyl)-7-chloro-2-oxobenzo[d]oxazol-3(2H)-yl)piperidine-2,6-dione]",–,–,73.81,–,21.9,95.4,1.05,–
"CCOc1cc(N2CCC(N3CCN(C(=O)CCC4CN(c5cccc6c5oc(=O)n6C5CCC(=O)NC5=O)C4)CC3)CC2)c(CC)cc1Nc1ncc(Br)c(Nc2ccc3nc(CC)ccc3c2P(C)(C)=O)n1 (centres unmarked) [Example 625, 3-(7-(3-(3-(4-(1-(4-((5-bromo-4-((5-(dimethylphosphoryl)-2-ethylquinolin-6-yl)amino)pyrimidin-2-yl)amino)-5-ethoxy-2-ethylphenyl)piperidin-4-yl)piperazin-1-yl)-3-oxopropyl)azetidin-1-yl)-2-oxobenzo[d]oxazol-3(2H)-yl)piperidine-2,6-dione]",–,11,80.1,1.86,–,–,–,88.8
"CCOc1cc(N2CCC(N3CCN(CCc4cc5oc(=O)n(C6CCC(=O)NC6=O)c5cc4Cl)CC3)CC2)c(CC)cc1Nc1ncc(Br)c(Nc2ccc3c(=O)n(CC)ncc3c2P(C)(C)=O)n1 (centres unmarked) [Example 626, 3-(6-(2-(4-(1-(4-((5-bromo-4-((5-(dimethylphosphoryl)-2-ethyl-1-oxo-1,2-dihydrophthalazin-6-yl)amino)pyrimidin-2-yl)amino)-5-ethoxy-2-ethylphenyl)piperidin-4-yl)piperazin-1-yl)ethyl)-5-chloro-2-oxobenzo[d]oxazol-3(2H)-yl)piperidine-2,6-dione]",–,–,76.73,–,5.43,91,0.711,–
"CCOc1cc(N2CCC(N3CCN(CCc4cc5oc(=O)n(C6CCC(=O)NC6=O)c5cc4Cl)CC3)CC2)c(CC)cc1Nc1ncc(Br)c(Nc2ccc3nc(CC)ccc3c2P(C)(C)=O)n1 (centres unmarked) [Example 627, 3-(6-(2-(4-(1-(4-((5-bromo-4-((5-(dimethylphosphoryl)-2-ethylquinolin-6-yl)amino)pyrimidin-2-yl)amino)-5-ethoxy-2-ethylphenyl)piperidin-4-yl)piperazin-1-yl)ethyl)-5-chloro-2-oxobenzo[d]oxazol-3(2H)-yl)piperidine-2,6-dione]",–,–,76.26,–,9.13,94.5,1.23,–
